Like-named read-outs stand apart in the source and are kept apart here.
Columns and labels:
[1] = Cytotoxicity study in THP-1 monocytes (Alamar Blue); format: cell-based; details: human
Description: In vitro antileishmanial activity tests were carried out against the promastigote stage and axenically cultured amastigotes of L. aethiopica and L. donovani. […] Axenically cultured amastigotes were obtained from the late stationary phase promastigotes (3 × 10^6 cells/ml). […] The pH was adjusted to 5.5 using 1 N HCl. Following incubation of cells at 31°C for L. aethiopica and 37°C for L. donovani at 5% CO2, amastigote-like rounded morphology together with loss of flagella and cell clumping started appearing within 24 h. The parasites were kept for a week as some motile parasites with intermediate forms and short flagella were detected. […] A cell-free medium was used to grow parasites in vitro and to set up the test system for determination of the IC50 values of the test substances.
THP-1 monocytes were plated onto 96-well plates at a density of 4 × 10^4 cells per well (in 200 μL volume) in the presence or absence of test substances and plates incubated at 37°C, 5% CO2 for 72 h. After adding Alamar Blue™ during the last 3 h of incubation, cell viability was measured fluorometrically as described above.

[2] = test system: Leishmania donovani promastigotes; test: In vitro antipromastigote assay (resazurin fluorescence); format: cell-based; details: L. donovani promastigotes, 72 h
Description: (§1) In vitro antileishmanial activity tests were carried out against the promastigote stage and axenically cultured amastigotes of L. aethiopica and L. donovani. The two isolates were grown in tissue culture flasks containing RPMI 1640 medium supplemented with 10% heat-inactivated fetal calf serum, 100 IU penicillin/mL, and 100 μg/mL streptomycin solution at 22°C for L. aethiopica and 24°C for L. donovani. Axenically cultured amastigotes were obtained from the late stationary phase promastigotes (3 × 10^6 cells/ml). The cells were centrifuged and then resuspended in medium 199 with Hank's salts supplemented with 20% FBS, 2 mM L-glutamine, 50 IU/mL penicillin, and 50 μg/mL streptomycin. The pH was adjusted to 5.5 using 1 N HCl. Following incubation of cells at 31°C for L. aethiopica and 37°C for L. donovani at 5% CO2, amastigote-like rounded morphology together with loss of flagella and cell clumping started appearing within 24 h. The parasites were kept for a week as some motile parasites with intermediate forms and short flagella were detected. The human monocytic leukemia cell line THP-1 cells were incubated in RPMI 1640 medium plus 10% hi-FCS and 20 ng/mL phorbol 12-myristate 13-acetate (PMA; Sigma) at 37°C and 5% CO2 for 72 h. A cell-free medium was used to grow parasites in vitro and to set up the test system for determination of the IC50 values of the test substances.
(§2) To a separate 96-well microtiter plate containing 100 μL of complete culture medium, each of the test substances was added to triplicate wells to achieve a final concentration of 100 μg/mL. Each one hundred microliter suspension of the parasites (3.5 × 10^6 promastigotes or axenically cultured amastigotes /mL of L. aethiopica or L. donovani) obtained from the previous culture was then added to each well, and contents of each plates were maintained for 72 h, at room temperature for promastigotes stages of both strains, at 31°C and 37°C for axenically cultured amastigotes of L. aethiopica and L. donovani, respectively. After 68 h of incubation, 20 μL (10% of the total volume of each well) resazurin (0.125 mg/mL) was added, covered with aluminum foil, and left at temperature mentioned above. Antileishmanial effect of the test substances was studied on the basis of fluorescence characteristic of resazurin added to drug-treated cultures.
(§3) Antipromastigote effect was evaluated against clinical isolates of L. aethiopica and L. donovani strains, as per the method described by Abeje et al..
(§4) Antileishmanial activity (IC50) was expressed as mean ± SD of triplicate measurements. IC50 values were evaluated from sigmoidal dose-response curves of percent inhibition using the computer software GraphPad Prism 8 (GraphPad Software, Inc., CA, USA), and values expressed as mean ± SD of triplicate experiments.

[3] = test system: Leishmania aethiopica promastigotes; test: as above; format: cell-based
Description: as §1, §2, §3, §4

[4] = test system: axenically cultured amastigotes of Leishmania aethiopica; test: In vitro assay on axenically cultured amastigotes (resazurin fluorescence); format: cell-based; details: for Selectivity index: LC50 on THP-1 cells / IC50 on L. aethiopica amastigotes; for IC50: Leishmania aethiopica, L. aethiopica axenic amastigotes, 72 h
Description: as §1, with “The human monocytic leukemia cell line THP-1 cells were incubated in RPMI 1640 medium plus 10% hi-FCS and 20 ng/mL phorbol 12-myristate 13-acetate (PMA; Sigma) at 37°C and 5% CO2 for 72 h.” left out, “substances. […] Each one hundred microliter suspension of the parasites (3.5 × 10^6 promastigotes or axenically cultured amastigotes /mL of L. aethiopica or L. donovani) obtained from the previous culture was then added to each well, and contents of each plates were maintained for 72 h, at room temperature for promastigotes stages of both strains, at 31°C and 37°C for axenically cultured amastigotes of L. aethiopica and L. donovani, respectively. After 68 h of incubation, 20 μL (10% of the total volume of each well) resazurin (0.125 mg/mL) was added, covered with aluminum foil, and left at temperature mentioned above. […] Antileishmanial activity (IC50) was expressed as mean ± SD of triplicate measurements. IC50 values were evaluated from sigmoidal dose-response curves of percent inhibition using the computer software GraphPad Prism 8 (GraphPad Software, Inc., CA, USA), and values expressed as mean ± SD of triplicate experiments.” for “substances.”

[5] = test system: axenically cultured amastigotes of Leishmania donovani; test: as above; format: cell-based; details: for Selectivity index: LC50 on THP-1 cells / IC50 on L. donovani amastigotes; for IC50: Leishmania donovani, L. donovani axenic amastigotes, 72 h
Description: as §1, with “The human monocytic leukemia cell line THP-1 cells were incubated in RPMI 1640 medium plus 10% hi-FCS and 20 ng/mL phorbol 12-myristate 13-acetate (PMA; Sigma) at 37°C and 5% CO2 for 72 h.” left out, “substances. […] Each one hundred microliter suspension of the parasites (3.5 × 10^6 promastigotes or axenically cultured amastigotes /mL of L. aethiopica or L. donovani) obtained from the previous culture was then added to each well, and contents of each plates were maintained for 72 h, at room temperature for promastigotes stages of both strains, at 31°C and 37°C for axenically cultured amastigotes of L. aethiopica and L. donovani, respectively. After 68 h of incubation, 20 μL (10% of the total volume of each well) resazurin (0.125 mg/mL) was added, covered with aluminum foil, and left at temperature mentioned above. […] Antileishmanial activity (IC50) was expressed as mean ± SD of triplicate measurements. IC50 values were evaluated from sigmoidal dose-response curves of percent inhibition using the computer software GraphPad Prism 8 (GraphPad Software, Inc., CA, USA), and values expressed as mean ± SD of triplicate experiments.” for “substances.”

[6] = Acute toxicity study (OECD limit test); details: mouse, in vivo; Swiss albino mice, limit test dose 2000 mg/kg, OECD guideline
Description: Acute toxicity study was carried out as described earlier using the limit test dose of 2000 mg/kg according to OECD guideline for testing of chemicals on Swiss albino mice.

L. major amastigotes = test system: L. major amastigotes; set-up: method as in PMID 26151018; details: in vitro; cited from earlier work
[7] = mean ± SD, n = 3, read-out: Cytotoxic effect in THP-1 LC50
[8] = read-out: Cytotoxic effect in THP-1 LC50 (micromolar, in parenthesis) (converted)
[9] = mean ± SD, n = 3, read-out: Antipromastigote activity IC50
[10] = read-out: Antipromastigote activity IC50 (micromolar, in parenthesis) (converted)
[11] = L. aethiopica promastigotes, 72 h, mean ± SD, n = 3, read-out: Antipromastigote activity IC50
[12] = L. aethiopica promastigotes, 72 h, read-out: Antipromastigote activity IC50 (micromolar, in parenthesis) (converted)
[13] = 31°C, mean ± SD, n = 3, read-out: Antiaxenically cultured amastigotes activity IC50
[14] = read-out: Antiaxenically cultured amastigotes activity IC50 (micromolar, in parenthesis) (converted)
[15] = 37°C, mean ± SD, n = 3, read-out: Antiaxenically cultured amastigotes activity IC50

| IC50 ([3]; promastigotes and axenic amastigotes of L. aethiopica and L. donovani, read-out: IC50 (range over both stages and both species)) [µM] | SMILES | CC50 at 72 h [1, 7] [µg/mL] | CC50 at 72 h [1, 8] [µM] | IC50 [2, 9] [µg/mL] | IC50 [2, 10] [µM] | IC50 [3, 11] [µg/mL] | IC50 [3, 12] [µM] | Selectivity index [4] | IC50 [4, 13] [µg/mL] | IC50 [4, 14] [µM] | Selectivity index [5] | IC50 [5, 15] [µg/mL] | IC50 [5, 14] [µM] | LD50 [6] [mg/kg] | inhibitory concentrations against L. major amastigotes (L. major amastigotes) [µg/mL] |
| --- | --- | --- | --- | --- | --- | --- | --- | --- | --- | --- | --- | --- | --- | --- | --- |
| 1.3 to 2.7 | C[C@@H]1[C@H](O)[C@@H](C)/C=C/C=C/C=C/C=C/C=C/C=C/C=C/[C@H](O[C@@H]2O[C@H](C)[C@@H](O)[C@H](N)[C@@H]2O)C[C@@H]2O[C@](O)(C[C@@H](O)C[C@@H](O)[C@H](O)CC[C@@H](O)C[C@@H](O)CC(=O)O[C@H]1C)C[C@H](O)[C@H]2C(=O)O [Amphotericin B, amphotericin B, reference compound] | 10.2 ± 0.32 | 11.1 | 2.45 ± 0.21 | 2.7 | 2.43 ± 0.22 | 2.6 | 8.31 | 1.23 ± 0.41 | 1.3 | 6.60 | 1.55 ± 0.51 | 1.7 | – | – |
| – | O=C1c2c(O)cccc2C(C2OC(CO)C(O)C(O)C2O)c2cc(CO)cc(O)c21 (centres unmarked) [Aloin A/B, aloin A/B] | 154.3 ± 0.22 | 369 | 5.06 ± 0.22 | 12.1 | 3.94 ± 0.33 | 9.4 | 55.11 | 2.8 ± 1.02 | 6.7 | 52.84 | 2.92 ± 0.15 | 7 | > 2000 | – |
| – | O=C(O)c1cc(O)c2c(c1)C(=O)c1cccc(O)c1C2=O [Rhein, rhein] | 173.7 ± 0.11 | 612 | 2.07 ± 0.11 | 7.3 | 1.91 ± 0.61 | 6.7 | 171.98 | 1.01 ± 0.22 | 3.6 | 148.46 | 1.17 ± 0.42 | 4.1 | > 2000 | – |
| – | O=C1c2cccc(O)c2C(=O)c2c(O)cc(CO)cc21 [Aloe-emodin, aloe-emodin] | 145.4 ± 0.27 | 539 | 2.85 ± 0.5 | 10.6 | 2.81 ± 0.43 | 10.4 | 65.22 | 2.23 ± 0.33 | 8.3 | 52.89 | 2.75 ± 0.03 | 10.2 | > 2000 | 40 |
